Laboratory results published in patent publication US4167570A, “2-Methyl-6-alkyl-11-aminoalkyl-6,11-dihydro-5H-pyrido(2,3-B)(1,5)benzodia zepin-5-ones and salts thereof” (Boehringer Ingelheim GmbH, priority 1976, dated 1979).
Counter-ions that a name gives are not always drawn.

Experiments:
[1] = system: bronchial secretion in guinea pigs; experiment: expectorant (bronchosecretolytic) activity, increase in bronchial secretion in anesthetized guinea pigs, peroral administration (Perry & Boyd, modified by Engelhorn & Puschmann); type: in vivo; conditions: two-hour period, vs untreated controls, male guinea pigs
Protocol: (§1) The bronchosecretolytic activity and the intravenous acute toxicity of the compounds of this invention and of certain related 2-unsubstituted analogs disclosed in German Offenlegungsschrift No. 2,424,811 were ascertained by the standard test methods described below.
The tests for expectorant activity were carried out according to the method of PERRY, W. and BOYD, E.M.; J. Pharmacol. exp. Therap. 73, 65 (1941), as modified by ENGELHORN, R. and PUSCHMANN, S.; Arzneimittel Forsch. 21, 1045 (1971), on male guinea pigs with a body weight of 450 to 550 gm, which were anesthetized by i.p.-administration of a * 25% urethane solution (1,0 g/kg). The substances were administered perorally at the indicated dosages levels, each in 2 ml of distilled water, by means of an esophageal tube. 5 tests were carried out per dosage. The increase in bronchial secretion was calculated from the amount secreted within a two-hour period after administration of the test compound in comparison with the values obtained from untreated control animals, also within a two-hour period.

[2] = acute toxicity, LD50 in the mouse after intravenous administration; conditions: in vivo, i.v., NMRI-mice both sexes, deaths within 14 days, Litchfield and Wilcoxon
Protocol: as §1
The acute toxicity was tested in NMRI-mice of both sexes having a body weight of 20 gm after intravenous administration. 0.1 ml of an aqueous 0.9% sodium chloride solution/10 gm of animal was used as a vehicle. The LD50 was calculated according to LITCHFIELD and WILCOXON from the percentage of the animals which died within 14 days after administration of various dosages.

Structure (SMILES) | Average percentage change in amount of bronchial secretion in guinea pigs ([1]; 0.005 μg/kg per os) | Average percentage change in amount of bronchial secretion in guinea pigs ([1]; 0.05 μg/kg per os) | LD50 at 336 h [2] | Average percentage change in amount of bronchial secretion in guinea pigs ([1]; 0.5 μg/kg per os)
CCN(CC)CCCN1c2ccccc2N(C)C(=O)c2ccc(C)nc21.Cl [A, 11-(3-Diethylamino-propyl)-6,11-dihydro-2,6-dimethyl-5H-pyrido[2,3-b][1,5]benzodiazepin-5-one hydrochloride] | +44% | +100% | 15.4 mg/kg | –
CCN(CC)CCCN1c2cc(C)c(C)cc2N(C)C(=O)c2ccc(C)nc21.O=C(O)/C=C/C(=O)O [B, 11-(3-Diethylamino-propyl)-6,11-dihydro-2,6,8,9-tetramethyl-5H-pyrido[2,3-b][1,5]benzodiazepin-5-one hydrogen fumarate] | +44% | +83% | 9.9 mg/kg | –
CCN(CC)CCCN1c2ccccc2N(C)C(=O)c2cccnc21.Cl [X, 11-(3-Diethylamino-propyl)-6,11-dihydro-6-methyl-5H-pyrido[2,3-b][1,5]benzodiazepin-5-one hydrochloride] | +0% | +13% | – | +80%
CCN(CCCN1c2ccccc2N(C)C(=O)c2cccnc21)C(C)C [Y, 11-[3-N-ethyl-N-isopropyl-amino)-propyl]-6,11-dihydro-6-methyl-5H-pyrido[2,3-b][1,5]benzodiazepin-5-one hydrochloride] | – | +10% | 30 mg/kg | –
CC(C)N(CCCN1c2ccccc2N(C)C(=O)c2cccnc21)C(C)C.Cl [Z, 6,11-Dihydro-11-(3-diisopropylamino-propyl)-6-methyl-5H-pyrido[2,3-b][1,5]benzodiazepin-5-one hydrochloride] | – | +27% | – | –
